Results from ChEMBL document CHEMBL4359851, “Design, synthesis, and biological evaluation of a new class of histone acetyltransferase p300 inhibitors” (Eur J Med Chem, 2019).
Values belong to the molecule of their own block, whether it stands above or below them. The source made the active and inactive calls. The calls are words filed in the database; no cut-off is given here.

Columns and labels:
[1] = Solubility of compound in water; type: physicochemical; details: buffer
[2] = molecular target: T1, Histone acetyltransferase p300 (Homo sapiens, UniProt Q09472); assay: Inhibition of p300 (unknown origin) using biotinylated histone H3 (1 to 21 residues) as substrate measured after 90 mins in presence of Acetyl CoA by AlphaLISA assay
T1 sequence (Q09472 whole entry, the tested form may be a part): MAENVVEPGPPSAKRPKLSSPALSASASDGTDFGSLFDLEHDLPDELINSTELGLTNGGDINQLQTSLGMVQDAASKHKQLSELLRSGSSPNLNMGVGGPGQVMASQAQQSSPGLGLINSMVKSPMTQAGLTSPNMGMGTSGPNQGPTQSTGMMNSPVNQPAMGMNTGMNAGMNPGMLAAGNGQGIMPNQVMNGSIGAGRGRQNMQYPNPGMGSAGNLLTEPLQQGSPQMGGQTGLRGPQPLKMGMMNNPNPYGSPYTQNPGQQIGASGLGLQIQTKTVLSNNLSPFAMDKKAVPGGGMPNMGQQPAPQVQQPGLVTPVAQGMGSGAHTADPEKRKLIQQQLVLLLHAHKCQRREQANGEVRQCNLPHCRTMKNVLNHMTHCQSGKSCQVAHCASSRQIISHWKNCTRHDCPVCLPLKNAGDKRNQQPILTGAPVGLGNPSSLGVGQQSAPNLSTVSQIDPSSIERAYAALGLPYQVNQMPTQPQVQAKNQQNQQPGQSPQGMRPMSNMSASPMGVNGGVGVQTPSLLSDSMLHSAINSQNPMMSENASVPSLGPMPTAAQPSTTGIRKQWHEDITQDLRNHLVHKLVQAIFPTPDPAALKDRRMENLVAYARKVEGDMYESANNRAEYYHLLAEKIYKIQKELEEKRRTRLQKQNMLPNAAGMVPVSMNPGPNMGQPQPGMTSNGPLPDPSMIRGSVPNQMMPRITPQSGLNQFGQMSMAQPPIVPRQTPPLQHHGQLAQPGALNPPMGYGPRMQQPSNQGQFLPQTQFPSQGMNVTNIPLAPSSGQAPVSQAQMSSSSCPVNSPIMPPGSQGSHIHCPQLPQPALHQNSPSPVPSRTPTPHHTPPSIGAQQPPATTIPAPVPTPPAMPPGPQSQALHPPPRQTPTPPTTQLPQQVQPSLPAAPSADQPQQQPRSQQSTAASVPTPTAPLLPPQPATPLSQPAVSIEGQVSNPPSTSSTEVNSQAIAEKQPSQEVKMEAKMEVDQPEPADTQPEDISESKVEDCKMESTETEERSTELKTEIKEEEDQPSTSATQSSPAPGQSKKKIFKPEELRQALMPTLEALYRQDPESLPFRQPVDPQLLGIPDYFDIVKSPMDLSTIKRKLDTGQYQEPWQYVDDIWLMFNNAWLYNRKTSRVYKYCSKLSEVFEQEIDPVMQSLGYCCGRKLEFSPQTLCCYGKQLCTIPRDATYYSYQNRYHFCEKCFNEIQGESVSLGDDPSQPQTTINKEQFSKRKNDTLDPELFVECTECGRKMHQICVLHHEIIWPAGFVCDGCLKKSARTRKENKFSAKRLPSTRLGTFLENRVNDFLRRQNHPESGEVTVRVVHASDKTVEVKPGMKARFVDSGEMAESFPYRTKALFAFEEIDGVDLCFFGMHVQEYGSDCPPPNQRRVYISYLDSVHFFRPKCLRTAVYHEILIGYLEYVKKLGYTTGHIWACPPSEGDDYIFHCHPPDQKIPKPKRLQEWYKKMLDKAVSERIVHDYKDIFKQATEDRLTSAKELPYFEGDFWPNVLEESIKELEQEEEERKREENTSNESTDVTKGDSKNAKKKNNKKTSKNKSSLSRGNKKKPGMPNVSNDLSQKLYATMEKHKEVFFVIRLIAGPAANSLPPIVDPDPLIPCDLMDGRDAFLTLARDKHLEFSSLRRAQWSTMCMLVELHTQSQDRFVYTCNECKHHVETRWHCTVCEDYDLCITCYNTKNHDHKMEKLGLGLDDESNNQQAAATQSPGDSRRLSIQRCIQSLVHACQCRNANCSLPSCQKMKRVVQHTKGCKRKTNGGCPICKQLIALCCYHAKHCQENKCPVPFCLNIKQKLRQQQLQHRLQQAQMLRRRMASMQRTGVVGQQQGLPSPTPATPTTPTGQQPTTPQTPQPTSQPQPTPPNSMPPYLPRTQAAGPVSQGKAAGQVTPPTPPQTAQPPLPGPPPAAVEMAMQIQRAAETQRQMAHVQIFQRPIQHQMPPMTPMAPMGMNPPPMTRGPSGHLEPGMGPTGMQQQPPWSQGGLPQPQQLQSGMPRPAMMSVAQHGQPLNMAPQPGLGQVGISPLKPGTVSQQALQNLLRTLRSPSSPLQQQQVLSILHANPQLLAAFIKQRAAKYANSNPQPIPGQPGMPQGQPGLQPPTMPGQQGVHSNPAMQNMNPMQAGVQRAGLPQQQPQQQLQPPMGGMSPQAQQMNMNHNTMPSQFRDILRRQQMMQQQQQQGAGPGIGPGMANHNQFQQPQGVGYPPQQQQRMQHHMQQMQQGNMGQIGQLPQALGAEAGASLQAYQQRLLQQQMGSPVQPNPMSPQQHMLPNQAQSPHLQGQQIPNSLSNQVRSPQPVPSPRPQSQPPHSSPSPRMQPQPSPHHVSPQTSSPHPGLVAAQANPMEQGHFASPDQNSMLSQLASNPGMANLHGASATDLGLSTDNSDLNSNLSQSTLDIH

[3] = Solubility of compound in ethyl acetate; type: physicochemical
[4] = molecular target: T1, Histone acetyltransferase p300; assay: Inhibition of p300 in human U2932 cells assessed as reduction in H3K27 acetylation at 10 uM measured after 4 days in presence of EZH2 inhibitor EPZ6438 by Western blot analysis; type: cell-based
MCF7 = assay: Antiproliferative activity against HER2-negative human MCF7 cells measured after 6 days of incubation by sulforhodamine B assay; type: functional, cell-based; details: MCF7, 144 h
T47D = assay: Antiproliferative activity against HER2-negative human T47D cells measured after 6 days of incubation by sulforhodamine B assay; type: functional, cell-based; details: 144 h
[5] = Reactivity with glutathione assessed as addition product with thiol group measured within 1 hr by mass spectrometry; type: physicochemical
[6] = Reactivity with dithiothretol assessed as addition product with thiol group measured within 1 hr by mass spectrometry; type: physicochemical
[7] = Reactivity with glutathione assessed as addition product with thiol group measured at 50 degC by mass spectrometry; type: physicochemical
Histone deacetylase 1 = Histone deacetylase 1 (Homo sapiens, UniProt Q13547); assay: Inhibition of recombinant HDAC1 (unknown origin) measured after 30 mins by fluorescence assay
Histone deacetylase 1, sequence (Q13547 whole entry): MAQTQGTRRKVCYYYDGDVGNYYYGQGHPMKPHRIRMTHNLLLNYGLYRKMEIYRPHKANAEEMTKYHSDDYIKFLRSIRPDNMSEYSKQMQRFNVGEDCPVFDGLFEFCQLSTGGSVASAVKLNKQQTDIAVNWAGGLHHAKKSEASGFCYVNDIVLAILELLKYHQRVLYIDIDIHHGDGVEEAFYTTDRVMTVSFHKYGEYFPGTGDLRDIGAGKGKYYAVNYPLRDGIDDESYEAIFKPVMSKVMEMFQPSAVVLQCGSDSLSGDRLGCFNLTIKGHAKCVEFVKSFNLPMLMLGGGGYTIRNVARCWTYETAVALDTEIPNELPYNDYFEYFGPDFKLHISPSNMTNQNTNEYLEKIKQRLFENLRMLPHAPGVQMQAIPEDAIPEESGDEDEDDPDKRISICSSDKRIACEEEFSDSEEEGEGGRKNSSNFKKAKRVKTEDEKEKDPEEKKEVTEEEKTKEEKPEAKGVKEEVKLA

[8] = Reactivity with dithiothretol assessed as addition product with thiol group measured at 50 degC by mass spectrometry; type: physicochemical
Histone deacetylase 3 = Histone deacetylase 3 (Homo sapiens, UniProt O15379); assay: Inhibition of recombinant HDAC3 (unknown origin) measured after 30 mins by fluorescence assay
Histone deacetylase 3, sequence (O15379 whole entry): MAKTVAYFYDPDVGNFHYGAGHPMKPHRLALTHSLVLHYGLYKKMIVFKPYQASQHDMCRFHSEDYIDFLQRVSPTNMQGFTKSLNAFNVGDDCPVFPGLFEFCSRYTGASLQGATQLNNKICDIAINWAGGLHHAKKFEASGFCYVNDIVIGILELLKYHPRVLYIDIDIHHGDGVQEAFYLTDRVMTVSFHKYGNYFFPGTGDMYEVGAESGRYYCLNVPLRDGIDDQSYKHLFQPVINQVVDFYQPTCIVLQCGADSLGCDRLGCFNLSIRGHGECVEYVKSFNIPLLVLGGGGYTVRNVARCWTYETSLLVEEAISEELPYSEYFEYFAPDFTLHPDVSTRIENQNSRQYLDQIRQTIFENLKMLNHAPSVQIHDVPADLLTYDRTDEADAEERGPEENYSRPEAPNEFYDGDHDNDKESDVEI

Histone deacetylase 2 = Histone deacetylase 2 (Homo sapiens, UniProt Q92769); assay: Inhibition of recombinant HDAC2 (unknown origin) measured after 30 mins by fluorescence assay
Histone deacetylase 2, sequence (Q92769 whole entry): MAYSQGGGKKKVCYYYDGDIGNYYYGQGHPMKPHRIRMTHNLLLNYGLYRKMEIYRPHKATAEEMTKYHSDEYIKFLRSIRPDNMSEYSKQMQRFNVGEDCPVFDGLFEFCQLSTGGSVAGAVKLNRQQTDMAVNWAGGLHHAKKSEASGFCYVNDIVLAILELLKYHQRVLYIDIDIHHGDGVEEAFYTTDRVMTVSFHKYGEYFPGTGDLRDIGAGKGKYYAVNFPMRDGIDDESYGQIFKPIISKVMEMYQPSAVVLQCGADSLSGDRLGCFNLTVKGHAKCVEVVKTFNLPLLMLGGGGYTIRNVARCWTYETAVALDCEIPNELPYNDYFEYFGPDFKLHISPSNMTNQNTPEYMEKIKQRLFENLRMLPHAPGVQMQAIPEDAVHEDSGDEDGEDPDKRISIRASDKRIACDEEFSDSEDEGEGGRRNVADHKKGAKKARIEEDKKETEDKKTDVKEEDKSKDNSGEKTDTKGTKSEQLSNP

[9] = Reactivity with glutathione assessed as addition product with thiol group measured after 6 hrs by mass spectrometry; type: physicochemical
[10] = Reactivity with dithiothretol assessed as addition product with thiol group measured after 6 hrs by mass spectrometry; type: physicochemical
Histone deacetylase 8 = molecular target: T2, Histone deacetylase 8 (Homo sapiens, UniProt Q9BY41); assay: Inhibition of recombinant HDAC8 (unknown origin) measured after 30 mins by fluorescence assay
T2 sequence (Q9BY41 whole entry): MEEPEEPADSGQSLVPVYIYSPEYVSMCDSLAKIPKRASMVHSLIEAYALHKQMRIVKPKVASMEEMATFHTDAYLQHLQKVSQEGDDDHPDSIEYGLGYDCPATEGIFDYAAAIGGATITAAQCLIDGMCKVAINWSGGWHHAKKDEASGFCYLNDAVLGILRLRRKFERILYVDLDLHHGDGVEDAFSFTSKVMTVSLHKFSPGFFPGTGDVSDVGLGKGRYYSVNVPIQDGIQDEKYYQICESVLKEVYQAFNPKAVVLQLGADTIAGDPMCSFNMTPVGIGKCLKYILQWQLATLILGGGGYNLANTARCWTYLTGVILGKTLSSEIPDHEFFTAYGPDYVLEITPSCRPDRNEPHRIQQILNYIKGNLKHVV

[11] = molecular target: T3, Protein deacetylase HDAC6 (Homo sapiens, UniProt Q9UBN7); assay: Inhibition of recombinant HDAC6 (unknown origin) measured after 30 mins by fluorescence assay
T3 sequence (Q9UBN7 whole entry): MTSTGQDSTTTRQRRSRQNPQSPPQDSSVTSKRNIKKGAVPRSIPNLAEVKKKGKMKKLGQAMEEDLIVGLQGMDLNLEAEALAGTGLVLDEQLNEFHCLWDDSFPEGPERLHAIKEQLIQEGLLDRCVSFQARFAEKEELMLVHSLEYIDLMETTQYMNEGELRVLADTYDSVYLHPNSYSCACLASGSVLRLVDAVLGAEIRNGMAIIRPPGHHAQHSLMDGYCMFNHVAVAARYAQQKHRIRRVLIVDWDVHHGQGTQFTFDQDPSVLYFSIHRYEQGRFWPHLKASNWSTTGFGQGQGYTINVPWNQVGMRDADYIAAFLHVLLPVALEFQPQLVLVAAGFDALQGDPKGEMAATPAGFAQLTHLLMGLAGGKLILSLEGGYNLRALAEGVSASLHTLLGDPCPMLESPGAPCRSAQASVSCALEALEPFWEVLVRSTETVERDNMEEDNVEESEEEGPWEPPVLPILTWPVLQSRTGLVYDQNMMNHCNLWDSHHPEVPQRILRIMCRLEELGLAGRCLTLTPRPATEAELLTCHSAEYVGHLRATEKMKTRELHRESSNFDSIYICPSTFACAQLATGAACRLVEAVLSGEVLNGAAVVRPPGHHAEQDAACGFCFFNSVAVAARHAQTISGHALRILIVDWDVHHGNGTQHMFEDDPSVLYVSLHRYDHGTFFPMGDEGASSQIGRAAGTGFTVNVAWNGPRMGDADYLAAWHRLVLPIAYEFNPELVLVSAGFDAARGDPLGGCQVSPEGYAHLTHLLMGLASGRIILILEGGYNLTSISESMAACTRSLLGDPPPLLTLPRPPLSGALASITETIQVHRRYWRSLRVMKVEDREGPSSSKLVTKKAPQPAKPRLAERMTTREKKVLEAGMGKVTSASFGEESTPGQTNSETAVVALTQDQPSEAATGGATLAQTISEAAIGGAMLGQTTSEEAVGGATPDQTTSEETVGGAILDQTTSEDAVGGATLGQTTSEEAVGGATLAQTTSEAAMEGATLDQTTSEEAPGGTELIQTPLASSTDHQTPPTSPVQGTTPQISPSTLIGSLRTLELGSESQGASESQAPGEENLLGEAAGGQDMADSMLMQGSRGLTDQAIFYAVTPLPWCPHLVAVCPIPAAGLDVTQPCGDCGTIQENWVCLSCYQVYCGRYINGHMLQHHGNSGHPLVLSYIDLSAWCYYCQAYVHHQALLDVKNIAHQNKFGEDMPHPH

Compound: CC1=NN(c2ccc(C(=O)O)cc2)C(=O)/C1=C\c1ccc(-c2cc(C)c(C)cc2[N+](=O)[O-])s1
IC50 [2]: 0.23 µM | inhibition [4]: Active | IC50 (MCF7): 27.3 µM | IC50 (T47D): 8.92 µM

Compound: CC1=NN(c2ccc(-c3nn[nH]n3)cc2)C(=O)/C1=C\c1ccc(-c2cc(C)c(C)cc2[N+](=O)[O-])o1
IC50 [2]: 0.67 µM

Compound: CC1=NN(c2ccc(C(=O)O)cc2)C(=O)/C1=C\c1ccc(-c2ccccc2P(C)(C)=O)o1
IC50 [2]: > 10 µM

Compound: CC1=NN(c2cc(F)c(O)c(F)c2)C(=O)/C1=C\c1ccc(-c2cc(C)c(C)cc2C(F)(F)F)o1
solubility [1]: Soluble | IC50 [2]: 7.31 µM | solubility [3]: Soluble | inhibition [4]: Active

Compound: Cc1cc(C(=O)c2ccc3c(cnn3-c3ccc(C(=O)O)cc3)c2)c([N+](=O)[O-])cc1C
IC50 [2]: > 10 µM

Compound: CC1=NN(c2ccc(S(C)(=O)=O)cc2)C(=O)/C1=C\c1ccc(-c2cc(C)c(C)cc2[N+](=O)[O-])o1
IC50 [2]: 4.06 µM

Compound: CC1=NN(c2ccc(C(=O)O)cc2)C(=O)/C1=C(/C)c1ccc(-c2cc(C)c(C)cc2[N+](=O)[O-])o1
IC50 [2]: 2.07 µM

Compound: CC1=NN(c2ccc(P(=O)(O)O)cc2)C(=O)/C1=C\c1ccc(-c2cc(C)c(C)cc2[N+](=O)[O-])o1
IC50 [2]: 0.47 µM

Compound: CC1=NN(c2ccc(C(=O)O)cc2)C(=O)/C1=C\c1ccc(-c2ccccc2C(F)F)o1
IC50 [2]: 1.17 µM

Compound: Cc1cc(-c2ccc(/C=C3/NC(=O)N(c4ccc(C(=O)O)cc4)C3=O)o2)c([N+](=O)[O-])cc1C
IC50 [2]: > 10 µM

Compound: CC1=NN(c2ccc(C(=O)O)cc2)C(=O)C1CC(=O)Nc1cc(C)c(C)cc1[N+](=O)[O-] (stereo not given)
IC50 [2]: 9.61 µM

Compound: CCC1=NN(c2ccc(C(=O)O)cc2)C(=O)/C1=C\c1ccc(-c2cc(C)c(C)cc2[N+](=O)[O-])o1
IC50 [2]: 0.19 µM

Compound: CC1=NN(c2cc(F)c(O)c(F)c2)C(=O)/C1=C\c1ccc(-c2cc(C)c(C)cc2[N+](=O)[O-])o1
solubility [1]: Soluble | IC50 [2]: 4.8 µM | solubility [3]: Soluble | inhibition [4]: Active

Compound: CC1=NN(c2ccc(C(=O)O)cc2)C(=O)/C1=C\c1ccc(-c2cc(C)c(C)cc2[N+](=O)[O-])[nH]1
IC50 [2]: 1.95 µM

Compound: CC1=NN(c2cc(F)c(O)c(F)c2)C(=O)/C1=C\c1ccc(-c2ccccc2OC(F)(F)F)o1
IC50 [2]: > 10 µM

Compound: Cc1cc(-c2ccc(/C=C(\C#N)C(=O)Nc3ccc(C(=O)O)cc3)o2)c([N+](=O)[O-])cc1C
IC50 [2]: 7.13 µM

Compound: CC1=NN(c2cc(F)c(O)c(F)c2)C(=O)/C1=C\c1ccc(-c2ccccc2C(F)F)o1
solubility [1]: Soluble | IC50 [2]: 6.05 µM | solubility [3]: Soluble | inhibition [4]: Active

Compound: CC1=NN(c2ccc(C(=O)O)cc2)C(=O)/C1=C\c1ccc(-c2ccccc2OC(F)(F)F)o1
IC50 [2]: 1.13 µM | inhibition [4]: Active | IC50 (MCF7): 23.9 µM | IC50 (T47D): 7.67 µM

Compound: CC1=NN(c2ccc(C(=O)O)cc2)C(=O)C1CCC(=O)Nc1cc(C)c(C)cc1[N+](=O)[O-] (stereo not given)
IC50 [2]: > 10 µM

Compound: CC1=NN(c2ccc(C#N)cc2)C(=O)/C1=C\c1ccc(-c2cc(C)c(C)cc2[N+](=O)[O-])o1
IC50 [2]: 1.53 µM

The next lines start with the values.

solubility [1]: Soluble | IC50 [2]: 3.73 µM | solubility [3]: Soluble | inhibition [4]: Active
Compound: CC1=NN(c2cc(F)c(O)c(F)c2)C(=O)/C1=C\c1ccc(-c2cccc3c2C(=O)CC3)o1

IC50 [2]: > 10 µM
Compound: Cc1cc(-c2ccc(/C=C3/SC(=O)N(c4ccc(C(=O)O)cc4)C3=O)o2)c([N+](=O)[O-])cc1C

Activity [5]: Active | Activity [6]: Active | IC50 (MCF7): 26.1 µM | IC50 (T47D): 7.8 µM
Compound: CC1=NN(c2ccc(C(=O)O)cc2)C(=O)/C1=C\c1ccc(-c2cc(C)c(C)cc2[N+](=O)[O-])o1

IC50 [2]: > 10 µM
Compound: Cc1cc(C(=O)c2ccc3c(ccn3-c3ccc(C(=O)O)cc3)c2)c([N+](=O)[O-])cc1C

Activity [7]: Active | IC50 (Histone deacetylase 1): > 100 µM | Activity [8]: Active | IC50 [2]: 0.16 µM | IC50 (Histone deacetylase 3): > 100 µM | inhibition [4]: Active | IC50 (Histone deacetylase 2): > 100 µM | IC50 (MCF7): 22.5 µM | Activity [9]: Not Active | Activity [10]: Not Active | IC50 (Histone deacetylase 8): > 100 µM | IC50 (T47D): 5.08 µM | IC50 [11]: 25.1 µM
Compound: Cc1cc(-c2ccc(/C=C3\C(=O)N(c4ccc(C(=O)O)cc4)N=C3C3CC3)s2)c(C(F)(F)F)cc1C

IC50 [2]: 0.56 µM
Compound: CC1=NN(c2ccc(C(=O)O)cc2)C(=O)/C1=C\c1ccc(-c2ccccc2[N+](=O)[O-])o1

IC50 [2]: > 10 µM
Compound: Cc1cc(Cc2ccc3c(cnn3-c3ccc(C(=O)O)cc3)c2)c([N+](=O)[O-])cc1C

IC50 [2]: 0.29 µM | inhibition [4]: Active | IC50 (MCF7): 10.9 µM | IC50 (T47D): 6.19 µM
Compound: CC1=NN(c2ccc(C(=O)O)cc2)C(=O)/C1=C\c1ccc(-c2cc(C)c(C)cc2C(F)(F)F)o1

IC50 [2]: 0.86 µM
Compound: CC1=NN(c2ccc(C(=O)O)cc2)C(=O)/C1=C\c1cnc(-c2cc(C)c(C)cc2[N+](=O)[O-])s1

IC50 [2]: 0.2 µM
Compound: Cc1cc(-c2ccc(/C=C3\C(=O)N(c4ccc(C(=O)O)cc4)N=C3C3CC3)o2)c([N+](=O)[O-])cc1C

IC50 [2]: 0.58 µM | inhibition [4]: Active | IC50 (MCF7): 26.8 µM | IC50 (T47D): 10 µM
Compound: CC1=NN(c2ccc(C(=O)O)cc2)C(=O)/C1=C\c1ccc(-c2cccc3c2C(=O)CC3)o1
